How the values were obtained:
[1] = target: Sodium-dependent dopamine transporter (Homo sapiens, UniProt Q01959); assay: Inhibition of [3H]WIN-35428 uptake in human DAT transfected HEK293 cells; format: cell-based
[2] = target: Sodium-dependent noradrenaline transporter (Homo sapiens, UniProt P23975)
Description: Inhibition of [3H]Nisoxetine uptake in human noradrenaline transporter transfected HEK293 cells

[3] = target: Sodium-dependent serotonin transporter (Homo sapiens, UniProt P31645); assay: Inhibition of [3H]Citalopram uptake in human 5HTT transfected HEK293 cells; format: cell-based
[4] = system: P-gp; assay: Apparent permeability from apical to basolateral side of the dog MDCK cells expressing P-gp transporter; format: ADME, cell-based, Canis lupus familiaris; conditions: MDCK-MDR1
[5] = target: Cytochrome P450 2D6 (Homo sapiens, UniProt P10635); assay: Inhibition of CYP2D6; format: ADME
[6] = Dissociation constant, pKa of the compound; format: physicochemical
[7] = Metabolic stability assessed as intrinsic clearance in human liver microsome; format: ADME; conditions: liver microsomes
[8] = Lipophilicity, logD at pH 7.4; format: physicochemical; conditions: buffer
[9] = system: P-gp; assay: Apparent permeability from basolateral to apical side of the dog MDCK cells expressing Pgp transporter; format: ADME, cell-based, Canis lupus familiaris; conditions: MDCK-MDR1
[10] = system: Hepatocyte; assay: Metabolic stability assessed as intrinsic clearance in human hepatocytes; format: ADME, cell-based, Liver
[11] = Lipophilicity, logP of the compound; format: physicochemical; conditions: octanol/water
[12] = Half life in human liver microsome; format: ADME; conditions: liver microsomes
[13] = target: Cytochrome P450 3A4 (Homo sapiens, UniProt P08684); assay: Inhibition of CYP3A4; format: ADME
[14] = Apparent permeability from basolateral to apical side of the human CaCO2 membrane; format: ADME, cell-based; conditions: Caco-2
[15] = target: Mu-type opioid receptor (Homo sapiens) (UniProt P35372); assay: Inhibition of mu opioid receptor at 10 uM
[16] = target: Kappa-type opioid receptor (Homo sapiens) (UniProt P41145); assay: Inhibition of kappa opioid receptor at 10 uM
[17] = Apparent permeability from apical to basolateral side of the human CaCO2 membrane; format: ADME, cell-based; conditions: Caco-2
[18] = target: Voltage-gated inwardly rectifying potassium channel KCNH2 (Homo sapiens, UniProt Q12809); assay: Displacement of [3H]dofetilide from human ERG channel
[19] = Binding affinity to sodium channel site 2
[20] = target: T1, Cytochrome P450 1A2 (Homo sapiens, UniProt P05177); assay: Inhibition of CYP1A2; format: ADME
T1 sequence (P05177 whole entry): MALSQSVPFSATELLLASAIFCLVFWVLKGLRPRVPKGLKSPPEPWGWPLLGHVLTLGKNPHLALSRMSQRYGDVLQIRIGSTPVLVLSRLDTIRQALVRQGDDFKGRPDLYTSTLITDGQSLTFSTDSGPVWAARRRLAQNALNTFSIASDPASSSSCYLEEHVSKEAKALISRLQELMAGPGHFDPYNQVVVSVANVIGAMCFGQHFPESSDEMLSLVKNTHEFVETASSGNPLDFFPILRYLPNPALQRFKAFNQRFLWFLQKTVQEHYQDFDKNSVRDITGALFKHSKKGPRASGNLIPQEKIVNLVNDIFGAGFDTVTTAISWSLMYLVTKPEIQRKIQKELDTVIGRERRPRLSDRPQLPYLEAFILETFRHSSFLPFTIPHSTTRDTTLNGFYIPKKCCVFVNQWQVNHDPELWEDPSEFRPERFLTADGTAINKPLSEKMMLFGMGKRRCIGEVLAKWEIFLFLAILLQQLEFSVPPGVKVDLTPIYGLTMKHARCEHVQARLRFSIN

[21] = Displacement of [3H]noradrenaline from rat noradrenaline transporter expressed in HEK293 cells; format: cell-based
[22] = system: Rattus norvegicus; assay: Increase in noradrenaline level in interstitial fluid of conscious rat prefrontal cortex at 0.3 mg/kg, sc relative to baseline; format: functional; conditions: route subcutaneous
[23] = target: T2, 5-hydroxytryptamine receptor 2C (Homo sapiens) (UniProt P28335); assay: Inhibition of 5HT2C receptor at 10 uM
T2 sequence (whole entry): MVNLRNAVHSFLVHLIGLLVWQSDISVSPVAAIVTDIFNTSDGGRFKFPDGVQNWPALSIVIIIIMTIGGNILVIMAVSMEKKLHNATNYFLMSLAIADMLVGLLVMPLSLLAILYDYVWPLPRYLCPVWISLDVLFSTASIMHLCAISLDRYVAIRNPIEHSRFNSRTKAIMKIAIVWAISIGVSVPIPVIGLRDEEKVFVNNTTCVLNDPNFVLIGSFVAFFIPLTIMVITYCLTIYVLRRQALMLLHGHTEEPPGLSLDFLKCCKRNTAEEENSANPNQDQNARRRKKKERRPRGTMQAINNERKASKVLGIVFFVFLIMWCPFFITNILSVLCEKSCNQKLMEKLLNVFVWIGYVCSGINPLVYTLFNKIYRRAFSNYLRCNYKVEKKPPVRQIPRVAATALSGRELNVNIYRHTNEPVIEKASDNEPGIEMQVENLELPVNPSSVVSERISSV

[24] = Binding affinity to calcium channel L-type at diltiazem site

Sodium-dependent serotonin transporter, sequence (P31645 whole entry): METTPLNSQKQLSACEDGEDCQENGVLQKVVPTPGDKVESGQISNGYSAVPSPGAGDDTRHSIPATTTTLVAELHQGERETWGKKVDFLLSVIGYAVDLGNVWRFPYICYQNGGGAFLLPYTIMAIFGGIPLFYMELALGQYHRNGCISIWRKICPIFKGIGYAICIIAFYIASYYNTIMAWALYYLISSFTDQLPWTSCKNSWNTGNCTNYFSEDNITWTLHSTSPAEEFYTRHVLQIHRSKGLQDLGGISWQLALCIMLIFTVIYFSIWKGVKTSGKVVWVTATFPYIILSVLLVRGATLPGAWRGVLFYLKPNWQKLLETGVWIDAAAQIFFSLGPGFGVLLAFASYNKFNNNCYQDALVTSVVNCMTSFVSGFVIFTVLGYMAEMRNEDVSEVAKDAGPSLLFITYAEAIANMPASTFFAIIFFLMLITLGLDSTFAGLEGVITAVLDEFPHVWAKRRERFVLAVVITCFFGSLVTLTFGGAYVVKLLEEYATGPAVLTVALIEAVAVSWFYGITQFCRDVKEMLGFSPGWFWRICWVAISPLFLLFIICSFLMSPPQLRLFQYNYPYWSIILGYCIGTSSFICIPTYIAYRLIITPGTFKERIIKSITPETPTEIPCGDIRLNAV
Sodium-dependent dopamine transporter, sequence (Q01959 whole entry): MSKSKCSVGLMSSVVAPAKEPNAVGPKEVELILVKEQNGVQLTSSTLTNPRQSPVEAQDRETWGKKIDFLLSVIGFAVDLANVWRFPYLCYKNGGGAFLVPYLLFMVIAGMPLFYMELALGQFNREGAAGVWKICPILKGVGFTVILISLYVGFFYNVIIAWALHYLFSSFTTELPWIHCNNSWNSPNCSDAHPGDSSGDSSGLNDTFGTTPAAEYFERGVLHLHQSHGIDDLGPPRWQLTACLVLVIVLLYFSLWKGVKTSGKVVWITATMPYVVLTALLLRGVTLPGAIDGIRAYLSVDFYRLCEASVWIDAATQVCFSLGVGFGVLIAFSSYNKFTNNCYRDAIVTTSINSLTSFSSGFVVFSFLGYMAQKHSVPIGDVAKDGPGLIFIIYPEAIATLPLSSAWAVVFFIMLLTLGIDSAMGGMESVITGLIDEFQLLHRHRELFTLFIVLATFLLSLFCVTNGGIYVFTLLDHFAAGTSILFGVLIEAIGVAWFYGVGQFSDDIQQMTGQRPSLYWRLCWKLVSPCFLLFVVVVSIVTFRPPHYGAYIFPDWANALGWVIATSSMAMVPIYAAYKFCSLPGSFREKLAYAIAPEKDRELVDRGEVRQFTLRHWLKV
Sodium-dependent noradrenaline transporter, sequence (P23975 whole entry): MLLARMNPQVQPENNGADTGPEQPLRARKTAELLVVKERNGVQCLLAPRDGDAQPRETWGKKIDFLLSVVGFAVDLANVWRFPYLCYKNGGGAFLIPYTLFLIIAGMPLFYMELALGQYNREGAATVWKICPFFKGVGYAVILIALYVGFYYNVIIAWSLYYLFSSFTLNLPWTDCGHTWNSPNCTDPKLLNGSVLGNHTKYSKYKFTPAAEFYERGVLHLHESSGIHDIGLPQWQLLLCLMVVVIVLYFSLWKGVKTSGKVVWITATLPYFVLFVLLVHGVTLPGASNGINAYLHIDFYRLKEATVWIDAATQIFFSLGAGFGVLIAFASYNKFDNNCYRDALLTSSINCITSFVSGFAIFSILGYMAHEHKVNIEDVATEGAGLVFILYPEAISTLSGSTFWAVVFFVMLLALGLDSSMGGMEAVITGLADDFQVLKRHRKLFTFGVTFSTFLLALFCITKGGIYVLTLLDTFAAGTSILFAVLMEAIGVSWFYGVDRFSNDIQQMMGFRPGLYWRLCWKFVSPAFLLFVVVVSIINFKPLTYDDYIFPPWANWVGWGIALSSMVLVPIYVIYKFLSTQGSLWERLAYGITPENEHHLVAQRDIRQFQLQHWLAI
Cytochrome P450 2D6, sequence (P10635 whole entry): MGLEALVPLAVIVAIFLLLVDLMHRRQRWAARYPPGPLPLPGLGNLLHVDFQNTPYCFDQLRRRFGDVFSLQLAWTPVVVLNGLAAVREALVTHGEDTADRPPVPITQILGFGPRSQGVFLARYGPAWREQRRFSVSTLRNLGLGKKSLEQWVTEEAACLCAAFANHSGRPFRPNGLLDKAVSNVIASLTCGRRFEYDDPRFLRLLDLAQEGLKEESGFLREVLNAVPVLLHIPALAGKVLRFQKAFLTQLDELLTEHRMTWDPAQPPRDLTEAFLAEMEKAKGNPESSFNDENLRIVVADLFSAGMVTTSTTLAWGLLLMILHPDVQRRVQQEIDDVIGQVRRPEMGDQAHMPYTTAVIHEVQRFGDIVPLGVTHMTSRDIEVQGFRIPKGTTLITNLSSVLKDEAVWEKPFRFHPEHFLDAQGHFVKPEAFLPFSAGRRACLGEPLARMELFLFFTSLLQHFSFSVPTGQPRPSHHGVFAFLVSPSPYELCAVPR
Voltage-gated inwardly rectifying potassium channel KCNH2, sequence (Q12809 whole entry): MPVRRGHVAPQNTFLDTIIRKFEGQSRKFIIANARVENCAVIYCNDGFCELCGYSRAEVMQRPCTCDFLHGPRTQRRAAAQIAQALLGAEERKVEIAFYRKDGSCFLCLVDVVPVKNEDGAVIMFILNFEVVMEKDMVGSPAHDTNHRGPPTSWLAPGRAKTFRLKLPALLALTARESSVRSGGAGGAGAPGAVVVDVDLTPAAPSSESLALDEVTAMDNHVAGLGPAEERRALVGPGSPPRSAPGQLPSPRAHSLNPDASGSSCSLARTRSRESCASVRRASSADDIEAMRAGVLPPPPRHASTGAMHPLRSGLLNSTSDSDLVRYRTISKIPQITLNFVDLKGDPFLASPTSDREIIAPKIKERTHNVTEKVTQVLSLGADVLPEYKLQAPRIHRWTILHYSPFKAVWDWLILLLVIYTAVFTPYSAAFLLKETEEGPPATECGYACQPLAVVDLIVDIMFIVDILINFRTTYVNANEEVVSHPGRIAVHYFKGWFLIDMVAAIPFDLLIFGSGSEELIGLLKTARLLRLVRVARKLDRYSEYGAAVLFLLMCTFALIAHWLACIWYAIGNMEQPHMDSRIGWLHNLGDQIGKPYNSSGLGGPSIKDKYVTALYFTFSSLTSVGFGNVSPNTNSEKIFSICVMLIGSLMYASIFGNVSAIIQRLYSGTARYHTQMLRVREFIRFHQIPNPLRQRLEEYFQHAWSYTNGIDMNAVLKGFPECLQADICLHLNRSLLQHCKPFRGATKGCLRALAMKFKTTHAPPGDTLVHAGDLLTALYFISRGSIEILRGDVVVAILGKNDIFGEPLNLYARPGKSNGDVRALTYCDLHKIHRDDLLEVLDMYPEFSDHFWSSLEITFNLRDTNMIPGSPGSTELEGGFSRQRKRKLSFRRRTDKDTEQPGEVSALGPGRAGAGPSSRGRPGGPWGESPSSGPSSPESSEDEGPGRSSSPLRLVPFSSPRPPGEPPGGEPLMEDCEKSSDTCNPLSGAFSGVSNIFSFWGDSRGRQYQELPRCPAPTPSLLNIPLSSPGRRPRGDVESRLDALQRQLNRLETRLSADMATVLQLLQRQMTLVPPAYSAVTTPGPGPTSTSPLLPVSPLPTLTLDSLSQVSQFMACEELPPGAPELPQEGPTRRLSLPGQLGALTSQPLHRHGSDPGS
Kappa-type opioid receptor (Homo sapiens), sequence (P41145 whole entry): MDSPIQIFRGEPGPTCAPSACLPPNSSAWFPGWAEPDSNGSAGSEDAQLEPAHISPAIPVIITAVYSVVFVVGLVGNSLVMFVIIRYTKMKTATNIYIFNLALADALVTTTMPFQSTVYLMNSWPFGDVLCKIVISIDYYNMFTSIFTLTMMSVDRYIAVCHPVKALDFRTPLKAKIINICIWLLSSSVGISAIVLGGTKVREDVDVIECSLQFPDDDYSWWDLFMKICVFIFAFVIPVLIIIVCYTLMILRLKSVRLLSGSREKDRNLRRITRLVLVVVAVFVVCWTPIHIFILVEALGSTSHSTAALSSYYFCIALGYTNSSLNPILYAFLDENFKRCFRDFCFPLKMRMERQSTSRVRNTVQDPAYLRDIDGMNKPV
Mu-type opioid receptor (Homo sapiens), sequence (P35372 whole entry): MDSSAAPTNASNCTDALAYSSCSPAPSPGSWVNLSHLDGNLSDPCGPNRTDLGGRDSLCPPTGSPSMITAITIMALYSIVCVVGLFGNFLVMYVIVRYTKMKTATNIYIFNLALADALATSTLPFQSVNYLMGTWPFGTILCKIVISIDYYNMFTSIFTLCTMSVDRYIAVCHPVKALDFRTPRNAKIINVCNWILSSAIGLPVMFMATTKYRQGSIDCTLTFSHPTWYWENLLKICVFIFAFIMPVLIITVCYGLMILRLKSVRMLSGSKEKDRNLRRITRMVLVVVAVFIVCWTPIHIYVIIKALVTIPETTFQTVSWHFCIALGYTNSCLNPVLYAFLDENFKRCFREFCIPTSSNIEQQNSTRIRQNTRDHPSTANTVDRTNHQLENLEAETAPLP
Cytochrome P450 3A4, sequence (P08684 whole entry): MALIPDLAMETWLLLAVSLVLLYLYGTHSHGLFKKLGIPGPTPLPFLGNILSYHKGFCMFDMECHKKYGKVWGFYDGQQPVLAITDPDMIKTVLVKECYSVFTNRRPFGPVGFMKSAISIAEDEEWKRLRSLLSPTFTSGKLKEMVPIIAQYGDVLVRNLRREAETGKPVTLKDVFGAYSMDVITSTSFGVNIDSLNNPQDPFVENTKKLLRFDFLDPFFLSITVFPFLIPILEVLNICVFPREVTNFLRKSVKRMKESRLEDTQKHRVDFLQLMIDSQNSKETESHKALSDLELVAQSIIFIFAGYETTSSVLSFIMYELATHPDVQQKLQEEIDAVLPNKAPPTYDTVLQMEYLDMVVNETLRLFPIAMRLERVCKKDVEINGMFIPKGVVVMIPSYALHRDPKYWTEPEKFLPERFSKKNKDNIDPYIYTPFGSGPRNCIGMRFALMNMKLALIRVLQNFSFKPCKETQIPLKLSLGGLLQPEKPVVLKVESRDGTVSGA

Compound: Cc1cc(Oc2ccccc2Cl)c(CN(C)C)cn1
- Ki [1]: 1160 nM
- Ki [2]: 131 nM
- Ki [3]: 242 nM

Compound: CCOc1ccccc1Oc1cc(C)ncc1CNC
- Ki [1]: 2390 nM
- Ki [2]: 461 nM
- Ki [3]: 218 nM

Compound: CCc1ccccc1Oc1cc(C)ncc1CNC
- Ki [1]: 2280 nM
- Ki [2]: 366 nM
- Ki [3]: 440 nM

Compound: Cc1cc(Oc2ccccc2Oc2ccccc2)c(CN(C)C)cn1
- Ki [1]: 2640 nM
- Ki [2]: 10 nM
- Papp A→B [4]: 41 ×10⁻⁶ cm/s
- IC50 [5]: 610 nM
- pKa [6]: 4.4
- microsomal CLint [7]: 29 µL/min/mg
- Ki [3]: 4060 nM
- logD [8]: 2.4
- Papp B→A [9]: 36 ×10⁻⁶ cm/s

Compound: CNCc1cnc(C)cc1Oc1ccccc1Oc1ccccc1
- CL [10]: 8 µL/min/mg
- logP [11]: 4.4
- half-life [12]: > 120 min
- IC50 [13]: > 3 µM
- Ki [1]: 1910 nM
- Ki [2]: 10 nM
- Papp B→A [14]: 19 ×10⁻⁶ cm/s
- inhibition [15]: > 80%
- Papp A→B [4]: 25 ×10⁻⁶ cm/s
- IC50 [5]: 3400 nM
- pKa [6]: 4.4
- inhibition [16]: > 80%
- Papp A→B [17]: 11 ×10⁻⁶ cm/s
- Ki [18]: 5.8 µM
- microsomal CLint [7]: < 7 µL/min/mg
- Ki [3]: 823 nM
- logD [8]: 1.6
- Ki [19]: 3.4 µM
- IC50 [20]: > 3 µM
- IC50 [21]: 2.5 nM
- Papp B→A [9]: 41 ×10⁻⁶ cm/s
- Activity [22]: 400%
- inhibition [23]: > 80%
- Ki [24]: 1200 nM

Compound: Cc1cc(Oc2ccccc2C(C)C)c(CN(C)C)cn1
- Ki [1]: 2880 nM
- Ki [2]: 13 nM
- Papp A→B [4]: 38 ×10⁻⁶ cm/s
- microsomal CLint [7]: 17 µL/min/mg
- Ki [3]: 1470 nM
- logD [8]: 2.5
- Papp B→A [9]: 39 ×10⁻⁶ cm/s

Compound: CNCc1cnc(C)cc1Oc1ccccc1Cl
- Ki [1]: 834 nM
- Ki [2]: 255 nM
- Ki [3]: 88 nM

Compound: Cc1cc(Oc2ccccc2C)c(CN(C)C)cn1
- Ki [1]: 1410 nM
- Ki [2]: 194 nM
- Ki [3]: 235 nM

Compound: CNCc1cnc(C)cc1Oc1ccccc1OC
- Ki [1]: 4800 nM
- Ki [2]: 921 nM
- Ki [3]: 265 nM

Compound: CCc1cc(Cl)ccc1Oc1cc(C)ncc1CN(C)C
- Ki [2]: 22 nM
- Ki [3]: 13 nM

Compound: CCc1ccccc1Oc1cc(C)ncc1CN(C)C
- Ki [1]: 2660 nM
- Ki [2]: 27 nM
- IC50 [18]: > 20 µM
- microsomal CLint [7]: < 7 µL/min/mg
- Ki [3]: 279 nM
- logD [8]: 2.1

Compound: CNCc1cnc(C)cc1Oc1ccccc1C
- Ki [1]: 1520 nM
- Ki [2]: 951 nM
- Ki [3]: 136 nM

Compound: CCCc1ccccc1Oc1cc(C)ncc1CNC
- Ki [1]: 1980 nM
- Ki [2]: 438 nM
- Ki [3]: 821 nM

Compound: CCOc1ccccc1Oc1cc(C)ncc1CN(C)C
- Ki [1]: 2150 nM
- Ki [3]: 4750 nM

Compound: CNCc1cnc(C)cc1Oc1ccccc1SC
- Ki [1]: 1750 nM
- Ki [2]: 232 nM
- Ki [3]: 133 nM

Compound: CSc1ccccc1Oc1cc(C)ncc1CN(C)C
- Ki [1]: 1930 nM
- Ki [2]: 58 nM
- Ki [3]: 384 nM

Compound: CCCc1ccccc1Oc1cc(C)ncc1CN(C)C
- Ki [1]: 2250 nM
- Ki [2]: 159 nM
- Ki [3]: 2820 nM

Compound: COc1ccccc1Oc1cc(C)ncc1CN(C)C
- Ki [1]: 4060 nM
- Ki [2]: 296 nM
- Ki [3]: 1420 nM

Compound: CNCc1cnc(C)cc1Oc1ccccc1C(C)C
- Ki [1]: 2130 nM
- Ki [2]: 82 nM
- Ki [3]: 1980 nM

Compound: CCc1cc(Cl)ccc1Oc1cc(C)ncc1CNC
- Ki [1]: 4350 nM
- Ki [2]: 74 nM
- Ki [3]: 18 nM

From ChEMBL document CHEMBL1144031, “[4-(Phenoxy)pyridin-3-yl]methylamines: a new class of selective noradrenaline reuptake inhibitors” (Bioorg Med Chem Lett, 2008)
